Values of other authors as cited in patent publication US12427145B2, “Controlled release pharmaceutical composition of Selexipag or it's active metabolite” (Innovate Therapeutics LLC, priority 2019, dated 2025).
Read-outs that look alike come from different tables or passages of the source.

Legend:
[1] = oral immediate release dosage form, out of 575 subjects
[2] = study AC-065A303, 52 subjects out of 218 subjects
[3] = fasting condition

Arthralgia, subjects [1]: 11%
Diarrhea, subjects [1]: 42%
Flushing, subjects [1]: 12%
Headache, subjects [1]: 65%
Jaw pain, subjects [1]: 26%
Myalgia, subjects [1]: 16%
Nausea, subjects [1]: 33%
Pain in Extremity, subjects [1]: 17%
Rash, subjects [1]: 11%
Vomiting, subjects [1]: 18%
subjects reporting Headache ([3]; 200 μg Selexipag, 1 out of 6 subjects): 17%
subjects reporting Headache ([3]; 600 μg Selexipag, 2 out of 6 subjects): 33%
subjects reporting Headache ([3]; 800 μg Selexipag, 5 out of 6 subjects): 83%
Compound: CC(C)N(CCCCOCC(=O)NS(C)(=O)=O)c1cnc(-c2ccccc2)c(-c2ccccc2)n1 [Selexipag]
subjects with at least 1 adverse event leading to discontinuation of study drug [2]: 24%
